# Structures can show the parent of a compound that is named as a salt.
# How the values were obtained:
# human GST-RIPK1 = molecular target: T1, human GST-RIPK1 (Homo sapiens, UniProt Q13546); assay: RIPK1 inhibitory activity (ADP-Glo kinase assay); assay type: biochemical; conditions: human GST-RIPK1 10 ng, ATP 50 uM, 25° C. for 4 hours, read-out: Enzyme IC50
# T1 construct: GST; purchased signalchem
# T1 sequence (Q13546 1-375 limits assumed): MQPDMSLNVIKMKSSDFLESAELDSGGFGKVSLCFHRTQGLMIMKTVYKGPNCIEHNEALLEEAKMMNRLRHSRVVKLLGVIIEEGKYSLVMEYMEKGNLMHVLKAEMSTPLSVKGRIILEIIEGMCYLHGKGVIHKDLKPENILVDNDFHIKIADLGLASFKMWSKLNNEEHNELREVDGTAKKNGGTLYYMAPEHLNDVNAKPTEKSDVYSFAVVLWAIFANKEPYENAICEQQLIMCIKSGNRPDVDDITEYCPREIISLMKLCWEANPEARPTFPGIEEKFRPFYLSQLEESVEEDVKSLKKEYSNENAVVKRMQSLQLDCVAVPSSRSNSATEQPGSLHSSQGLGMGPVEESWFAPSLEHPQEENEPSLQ
# Protocol: The following experiment was performed to evaluate the inhibitory activity of the example compounds according to the present invention against RIPK1 (receptor-interacting serine/threonine protein kinase 1).
# The example compound was reacted with the purified human GST-RIPK1 (1375, signalchem) enzyme to evaluate the enzyme inhibitory activity in the following manner. The composition of the reaction buffer used herein was as follows: 40 mM Tris-Hcl pH 7.4, 20 mM MgCl2, 0.5 mg/ml, BSA and 0.5 uM DTT. All the test materials were reacted in the reaction buffer. After reacting human GST-RIPK1 (1375, 10 ng), purified ATP (50 uM) and a specific substrate solution at 25° C. for 4 hours, the enzyme activity was confirmed using an in vitro ADP-Glo™ kinase assay (promega). Luminoscence was measured by reacting the enzyme activity reaction solution, ADP-Glo reaction solution, and enzyme activity detection solution at the ratio of 2:2:1. The degree of enzyme activity inhibition according to the treatment concentration of each compound was calculated based on the fluorescence of the enzyme activity of the solvent control not treated with the compound. At this time, the concentration of each compound inhibiting 50% of the enzyme activity was determined as IC50 (nM). IC50 of each compound was determined with three data sets and calculated using Prism (version 7.01, GraphPad) software.
# [1] = tested on: human Jurkat T cells deficient in FADD; assay: Cell protection effect under apoptosis-inducing condition (TNF-α); assay type: cell-based; conditions: 40 ng of TNF-α, 50 hours, CellTiter-Glo, read-out: I2.I Cell EC50
# Protocol: The cell protection effect of the compounds according to the present invention under the condition of inducing apoptosis by TNF-α was confirmed by […]. An apoptosis inducing factor such as TNF-α was treated to induce apoptosis of human Jurkat T cells deficient in FADD, to which the example compound was treated, and the cell protection effect was confirmed through the following analysis. Jurkat T cells deficient in FADD were cultured using RPMI medium (Hyclone) containing 10% FBS. When performing the test, the cells were seeded in a 96-well plate containing a medium suitable for the cell line at the density of 10,000 cells/well, and cultured in a 37° C. 5% CO2 incubator for 24 hours. Then, each well was treated with 40 ng of TNF-α, and the compounds prepared in the above examples were each treated with a 3-fold concentration gradient with 1 μM as the highest concentration. As the solvent control, dimethyl sulfoxide (DMSO) was treated at the concentration of 0.05% (v/v), which was the same concentration as that used for the compound treatment. Then, the cells were cultured for 50 hours. To confirm the degree of viability of the cells, a mixture provided in CellTiter-Gloe Luminescent Cell Viability Assay Kit (Promega) was added to the culture medium of the cells, followed by further culture at 37° C. for 30 minutes. Then, luminescence fluorescence was measured. The degree of inhibition of apoptosis induction according to the treatment concentration of each compound was calculated based on the fluorescence of the solvent control cells not treated with the compound. At this time, the concentration of each compound inhibiting 50% was determined as EC50 (μM). EC50 of each compound was calculated using Prism (version 7.01, GraphPad) software.
SMILES,IC50 (human GST-RIPK1),EC50 [1]
"O=C(Nc1ccc(C#Cc2cnc3cccnn23)cc1)N1N=CCC1c1ccccc1 (centres unmarked) [Example 22, N-(4-(imidazo[1,2-b]pyridazin-3-ylethynyl)phenyl)-5-phenyl-4,5-dihydro-1H-pyrazole-1-carboxamide 2,2,2-trifluoroacetate]",> 1000 nM,> 1000 nM
"O=C(Nc1cccc(C#Cc2cnc3cccnn23)c1)N1N=CCC1c1cc(F)cc(F)c1 (centres unmarked) [Example 23, 5-(3,5-difluorophenyl)-N-(3-(imidazo[1,2-b]pyridazin-3-ylethynyl)phenyl)-4,5-dihydro-1H-pyrazole-1-carboxamide 2,2,2-trifluoroacetate]",32.2 nM,1.2 nM
"O=C(Nc1cccc(C#Cc2cnc3cccnn23)c1)N1N=CC[C@H]1c1cc(F)cc(F)c1 [Example 24, (S)-5-(3,5-difluorophenyl)-N-(3-(imidazo[1,2-b]pyridazin-3-ylethynyl)phenyl)-4,5-dihydro-1H-pyrazole-1-carboxamide 2,2,2-trifluoroacetate]",2.76 nM,0.44 nM
"O=C(Nc1cccc(C#Cc2cnc3cccnn23)c1)N1N=CC[C@@H]1c1cc(F)cc(F)c1 [Example 25, (R)-5-(3,5-difluorophenyl)-N-(3-(imidazo[1,2-b]pyridazin-3-ylethynyl)phenyl)-4,5-dihydro-1H-pyrazole-1-carboxamide 2,2,2-trifluoroacetate]",878 nM,364 nM
"O=C(Nc1cccc(C#Cc2cnc3cccnn23)c1)N1N=CCC1c1ccc(C(F)(F)F)cc1 (centres unmarked) [Example 26, N-(3-(imidazo[1,2-b]pyridazin-3-ylethynyl)phenyl)-5-(4-(trifluoromethyl)phenyl)-4,5-dihydro-1H-pyrazole-1-carboxamide 2,2,2-trifluoroacetate]",6.9 nM,201 nM
"COc1ccc(C2CC=NN2C(=O)Nc2cccc(C#Cc3cnc4cccnn34)c2)cc1 (centres unmarked) [Example 27, N-(3-(imidazo[1,2-b]pyridazin-3-ylethynyl)phenyl)-5-(4-methoxyphenyl)-4,5-dihydro-1H-pyrazole-1-carboxamide 2,2,2-trifluoroacetate]",2.35 nM,55.4 nM
"O=C(Nc1cccc(C#Cc2cnc3cccnn23)c1)N1N=CCC1c1cccc(F)c1 (centres unmarked) [Example 28, 5-(3-fluorophenyl)-N-(3-(imidazo[1,2-b]pyridazin-3-ylethynyl)phenyl)-4,5-dihydro-1H-pyrazole-1-carboxamide 2,2,2-trifluoroacetate]",10.1 nM,0.8 nM
"O=C(Nc1cccc(C#Cc2cnc3cccnn23)c1)N1N=CC[C@H]1c1cccc(F)c1 [Example 29, (S)-5-(3-fluorophenyl)-N-(3-(imidazo[1,2-b]pyridazin-3-ylethynyl)phenyl)-4,5-dihydro-1H-pyrazole-1-carboxamide 2,2,2-trifluoroacetate]",5.83 nM,0.3 nM
"O=C(Nc1cccc(C#Cc2cnc3cccnn23)c1)N1N=CC[C@@H]1c1cccc(F)c1 [Example 30, (R)-5-(3-fluorophenyl)-N-(3-(imidazo[1,2-b]pyridazin-3-ylethynyl)phenyl)-4,5-dihydro-1H-pyrazole-1-carboxamide 2,2,2-trifluoroacetate]",399 nM,321 nM
"O=C(Nc1cccc(C#Cc2cnc3cccnn23)c1)N1N=CCC1c1ccc(F)cc1 (centres unmarked) [Example 31, 5-(4-fluorophenyl)-N-(3-(imidazo[1,2-b]pyridazin-3-ylethynyl)phenyl)-4,5-dihydro-1H-pyrazole-1-carboxamide 2,2,2-trifluoroacetate]",10.2 nM,1.43 nM
"O=C(Nc1cccc(C#Cc2cnc3cccnn23)c1)N1N=CC[C@H]1c1ccc(F)cc1 [Example 32, (S)-5-(4-fluorophenyl)-N-(3-(imidazo[1,2-b]pyridazin-3-ylethynyl)phenyl)-4,5-dihydro-1H-pyrazole-1-carboxamide 2,2,2-trifluoroacetate]",4.83 nM,0.63 nM
"O=C(Nc1cccc(C#Cc2cnc3cccnn23)c1)N1N=CC[C@@H]1c1ccc(F)cc1 [Example 33, (R)-5-(4-fluorophenyl)-N-(3-(imidazo[1,2-b]pyridazin-3-ylethynyl)phenyl)-4,5-dihydro-1H-pyrazole-1-carboxamide 2,2,2-trifluoroacetate]",> 1000 nM,32 nM
"O=C(Nc1cccc(C#Cc2cnc3cccnn23)c1)N1N=CCC1c1cccc(Cl)c1 (centres unmarked) [Example 34, 5-(3-chlorophenyl)-N-(3-(imidazo[1,2-b]pyridazin-3-ylethynyl)phenyl)-4,5-dihydro-1H-pyrazole-1-carboxamide 2,2,2-trifluoroacetate]",18.9 nM,43 nM
"O=C(Nc1cccc(C#Cc2cnc3cccnn23)c1)N1N=CCC1c1ccc(Cl)cc1 (centres unmarked) [Example 35, 5-(4-chlorophenyl)-N-(3-(imidazo[1,2-b]pyridazin-3-ylethynyl)phenyl)-4,5-dihydro-1H-pyrazole-1-carboxamide 2,2,2-trifluoroacetate]",61.6 nM,3.87 nM
"O=C(Nc1cccc(C#Cc2cnc3cccnn23)c1)N1N=CCC1c1cccnc1 (centres unmarked) [Example 36, N-(3-(imidazo[1,2-b]pyridazin-3-ylethynyl)phenyl)-5-(pyridin-3-yl)-4,5-dihydro-1H-pyrazole-1-carboxamide 2,2,2-trifluoroacetate]",2.98 nM,12 nM
"O=C(Nc1cccc(C#Cc2cnc3cccnn23)c1)N1N=CCC1c1ccccn1 (centres unmarked) [Example 37, N-(3-(imidazo[1,2-b]pyridazin-3-ylethynyl)phenyl)-5-(pyridin-2-yl)-4,5-dihydro-1H-pyrazole-1-carboxamide 2,2,2-trifluoroacetate]",1.22 nM,1.84 nM
"O=C(Nc1cccc(C#Cc2cnc3cccnn23)c1)N1N=CCC1c1ccncc1 (centres unmarked) [Example 38, N-(3-(imidazo[1,2-b]pyridazin-3-ylethynyl)phenyl)-5-(pyridin-4-yl)-4,5-dihydro-1H-pyrazole-1-carboxamide hydrochloride]",1.1 nM,106 nM
"O=C(Nc1cccc(C#Cc2cnc3cccnn23)c1)N1N=CCC1c1ccc2c(c1)OCO2 (centres unmarked) [Example 39, 5-(benzo[d][1,3]dioxol-5-yl)-N-(3-(imidazo[1,2-b]pyridazin-3-ylethynyl)phenyl)-4,5-dihydro-1H-pyrazole-1-carboxamide 2,2,2-trifluoroacetate]",4.9 nM,2.8 nM
"O=C(Nc1cccc(C#Cc2cnc3cccnn23)c1)N1N=CCC1c1ccc2ccccc2c1 (centres unmarked) [Example 40, N-(3-(imidazo[1,2-b]pyridazin-3-ylethynyl)phenyl)-5-(naphthalen-2-yl)-4,5-dihydro-1H-pyrazole-1-carboxamide]",19 nM,12.4 nM
"O=C(Nc1cccc(C#Cc2cnc3cccnn23)c1)N1N=CCC1c1cc2ccccc2cn1 (centres unmarked) [Example 41, N-(3-(imidazo[1,2-b]pyridazin-3-ylethynyl)phenyl)-5-(isoquinolin-3-yl)-4,5-dihydro-1H-pyrazole-1-carboxamide]",33 nM,64.6 nM
"O=C(Nc1cccc(C#Cc2cnc3cccnn23)c1)N1N=CCC1C1CCCCC1 (centres unmarked) [Example 42, 5-cyclohexyl-N-(3-(imidazo[1,2-b]pyridazin-3-ylethynyl)phenyl)-4,5-dihydro-1H-pyrazole-1-carboxamide]",12.7 nM,1.5 nM
"S=C(Nc1cccc(C#Cc2cnc3cccnn23)c1)N1N=CCC1c1ccccc1 (centres unmarked) [Example 43, N-(3-(imidazo[1,2-b]pyridazin-3-ylethynyl)phenyl)-5-phenyl-4,5-dihydro-1H-pyrazole-1-carbothioamide]",277 nM,6.7 nM

# From patent US20210284647A1, “N-(3-(IMIDAZO[1,2-B]PYRIDAZIN-3-YLETHYNYL)-4-METHYLPHENYL)-5-PHENYL-4,5-DIHYDRO-1H-PYRAZOLE-1-CARBOXAMIDE DERIVATIVE, AND PHARMACEUTICAL COMPOSITION CONTAINING SAME AS ACTIVE INGREDIENT FOR TREATING KINASE-RELATED DISEASES” (VORONOIBIO INC., priority 2018, published 2021)
